According to publication PMC10447463, “Data-mining unveils structure–property–activity correlation of viral infectivity enhancing self-assembling peptides” (Nature Communications, 2023):
Read-outs that look alike come from different tables or passages of the source.

Key:
[1] = assay type: physicochemical; set-up: key to Fibril / Fibril Formation / TEM 2cat / Fibril: 1 = fibrils present; 0 non-fibrillar structures; details: for Fibril / Fibril Formation: 1 mg/mL, uranyl acetate stain, qualitative
[2] = assay type: physicochemical; details: for ThT Cat. / ThT-Fluorescence (categorical): ThT-active if fluorescence at least twice the control
Procedure, shortened: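 Fibrils (1 mg/mL solution) were mixed with 50 µM ThT in PBS for 15 min at RT, and fluorescence was read at λex 440/λem 488 nm against a PBS blank, as a triplicate mean ± SD. Zeta potential came from electrophoretic mobility (Smoluchowski) after 1 d aggregation at 1 mg/mL in PBS pH 7.4, diluted into 1 mM KCl.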

[3] = β-sheet content by ATR-FT-IR; assay type: physicochemical; details: Fig. S7 panel A; β-sheet content by ATR-FT-IR
Procedure, shortened: (§1)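 First, PNF was ultrafiltered (3 kDa MWCO, 16200 x g, 45 min, 4 °C). Next, filtrate and unfiltered sample were lyophilized and taken up in DMSO. Then fluorescamine was added for 20 min at RT before reading ex 365/em 470 nm. β-sheet: ATR FT-IR of lyophilized 1 mg/mL PNF.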

[4] = Conversion rate (CR) assay with fluorescamine; assay type: physicochemical; set-up: key to CR: % = 100−100×filtrate/original fluorescence intensity; details: conversion rate, fluorescamine assay; for CR / %: Fig. S7 panel B
Procedure, shortened: as §1

[5] = TEM, 1 = fibrils present, 0 = non-fibrillar
[6] = TEM, 1 = fibrils present, 0 = non-fibrillar structures
[7] = category: fibrils present or non-fibrillar
[8] = FigS12 panel A, fibril category by TEM

CKFKFQFNMWQ
TEM 2cat ([1]; Fig S10 panel D): 1
Fibril ([1]; Fig S10 panel E): 1
Fibril / Fibril Formation ([1]; TEM): 1
Fibril [1, 5]: 1
Fibril [1, 6]: 1
TEM 2cat [1, 7]: 1
Tht category (> 2 to blank = +) ([2]; Fig S10 panel D): 1 (ThT. Cat is 1, if Rel. ThT >2)
ThT Cat. ([2]; Fig S10 panel E): 1 (ThT. Cat is 1, if Rel. ThT >2)
ThT Cat, ([2]; ThT category, 1 if Rel. ThT >2): 1 (ThT. Cat is 1, if Rel. ThT >2)
ThT Cat. ([2]; ThT category, 1 if Rel. ThT >2): 1 (ThT. Cat is 1, if Rel. ThT >2)
ThT Cat. / ThT-Fluorescence (categorical) [2]: 1 (ThT. Cat is 1, if Rel. ThT >2)
b -sheet / % [3]: 47.05%
CR / % [4]: 97.5%
CR [4]: 97.52

CKFQC
TEM 2cat ([1]; Fig S10 panel D): 0
Fibril ([1]; Fig S10 panel E): 0
TEM 2cat [1, 8]: 0
Fibril ([1]; FigS12 panel B, TEM): 0
Fibril / Fibril Formation ([1]; TEM): 0
Fibril [1, 5]: 0
Fibril [1, 6]: 0
Tht category (> 2 to blank = +) ([2]; Fig S10 panel D): 0 (ThT-inactive (N-Fold <2))
ThT Cat. ([2]; Fig S10 panel E): 0 (ThT-inactive (N-Fold <2))
Tht category (> 2 to blank = +) ([2]; FigS12 panel A): 0 (ThT-inactive (N-Fold <2))
ThT Cat, ([2]; FigS12 panel B): 0 (ThT-inactive (N-Fold <2))
ThT Cat, ([2]; ThT category, 1 if Rel. ThT >2): 0 (ThT-inactive (N-Fold <2))
ThT Cat. ([2]; ThT category, 1 if Rel. ThT >2): 0 (ThT-inactive (N-Fold <2))
ThT Cat. / ThT-Fluorescence (categorical) [2]: 0 (ThT-inactive (N-Fold <2))
b -sheet / % [3]: 43.86%
CR / % [4]: 33.2%
CR [4]: 33.24

CKIKQIINM
TEM 2cat ([1]; Fig S10 panel D): 1
Fibril ([1]; Fig S10 panel E): 1
Fibril / Fibril Formation ([1]; TEM): 1
Fibril [1, 5]: 1
Fibril [1, 6]: 1
TEM 2cat [1, 7]: 1
Tht category (> 2 to blank = +) ([2]; Fig S10 panel D): 1 (ThT. Cat is 1, if Rel. ThT >2)
ThT Cat. ([2]; Fig S10 panel E): 1 (ThT. Cat is 1, if Rel. ThT >2)
ThT Cat, ([2]; ThT category, 1 if Rel. ThT >2): 1 (ThT. Cat is 1, if Rel. ThT >2)
ThT Cat. ([2]; ThT category, 1 if Rel. ThT >2): 1 (ThT. Cat is 1, if Rel. ThT >2)
ThT Cat. / ThT-Fluorescence (categorical) [2]: 1 (ThT. Cat is 1, if Rel. ThT >2)
b -sheet / % [3]: 46%
CR / % [4]: 45%
CR [4]: 45

CRFRFQF
TEM 2cat ([1]; Fig S10 panel D): 1
Fibril ([1]; Fig S10 panel E): 1
Fibril / Fibril Formation ([1]; TEM): 1
Fibril [1, 5]: 1
Fibril [1, 6]: 1
TEM 2cat [1, 7]: 1
Tht category (> 2 to blank = +) ([2]; Fig S10 panel D): 1 (ThT. Cat is 1, if Rel. ThT >2)
ThT Cat. ([2]; Fig S10 panel E): 1 (ThT. Cat is 1, if Rel. ThT >2)
ThT Cat, ([2]; ThT category, 1 if Rel. ThT >2): 1 (ThT. Cat is 1, if Rel. ThT >2)
ThT Cat. ([2]; ThT category, 1 if Rel. ThT >2): 1 (ThT. Cat is 1, if Rel. ThT >2)
ThT Cat. / ThT-Fluorescence (categorical) [2]: 1 (ThT. Cat is 1, if Rel. ThT >2)
b -sheet / % [3]: 39.77%
CR / % [4]: 98.1%
CR [4]: 98.13

CRFRVPF
TEM 2cat ([1]; Fig S10 panel D): 0
Fibril ([1]; Fig S10 panel E): 0
TEM 2cat [1, 8]: 0
Fibril ([1]; FigS12 panel B, TEM): 0
Fibril / Fibril Formation ([1]; TEM): 0
Fibril [1, 5]: 0
Fibril [1, 6]: 0
Tht category (> 2 to blank = +) ([2]; Fig S10 panel D): 0 (ThT-inactive (N-Fold <2))
ThT Cat. ([2]; Fig S10 panel E): 0 (ThT-inactive (N-Fold <2))
Tht category (> 2 to blank = +) ([2]; FigS12 panel A): 0 (ThT-inactive (N-Fold <2))
ThT Cat, ([2]; FigS12 panel B): 0 (ThT-inactive (N-Fold <2))
ThT Cat, ([2]; ThT category, 1 if Rel. ThT >2): 0 (ThT-inactive (N-Fold <2))
ThT Cat. ([2]; ThT category, 1 if Rel. ThT >2): 0 (ThT-inactive (N-Fold <2))
ThT Cat. / ThT-Fluorescence (categorical) [2]: 0 (ThT-inactive (N-Fold <2))
b -sheet / % [3]: 11.43%
CR / % [4]: 97.1%
CR [4]: 97.05

HGDKCHGDKC
TEM 2cat ([1]; Fig S10 panel D): 0
Fibril ([1]; Fig S10 panel E): 0
TEM 2cat [1, 8]: 0
Fibril ([1]; FigS12 panel B, TEM): 0
Fibril / Fibril Formation ([1]; TEM): 0
Fibril [1, 5]: 0
Fibril [1, 6]: 0
Tht category (> 2 to blank = +) ([2]; Fig S10 panel D): 0 (ThT-inactive (N-Fold <2))
ThT Cat. ([2]; Fig S10 panel E): 0 (ThT-inactive (N-Fold <2))
Tht category (> 2 to blank = +) ([2]; FigS12 panel A): 0 (ThT-inactive (N-Fold <2))
ThT Cat, ([2]; FigS12 panel B): 0 (ThT-inactive (N-Fold <2))
ThT Cat, ([2]; ThT category, 1 if Rel. ThT >2): 0 (ThT-inactive (N-Fold <2))
ThT Cat. ([2]; ThT category, 1 if Rel. ThT >2): 0 (ThT-inactive (N-Fold <2))
ThT Cat. / ThT-Fluorescence (categorical) [2]: 0 (ThT-inactive (N-Fold <2))
b -sheet / % [3]: 4.749%
CR / % [4]: 37.4%
CR [4]: 37.3627

HGEHGEHGE
TEM 2cat ([1]; Fig S10 panel D): 0
Fibril ([1]; Fig S10 panel E): 0
TEM 2cat [1, 8]: 0
Fibril ([1]; FigS12 panel B, TEM): 0
Fibril / Fibril Formation ([1]; TEM): 0
Fibril [1, 5]: 0
Fibril [1, 6]: 0
Tht category (> 2 to blank = +) ([2]; Fig S10 panel D): 0 (ThT-inactive (N-Fold <2))
ThT Cat. ([2]; Fig S10 panel E): 0 (ThT-inactive (N-Fold <2))
Tht category (> 2 to blank = +) ([2]; FigS12 panel A): 0 (ThT-inactive (N-Fold <2))
ThT Cat, ([2]; FigS12 panel B): 0 (ThT-inactive (N-Fold <2))
ThT Cat, ([2]; ThT category, 1 if Rel. ThT >2): 0 (ThT-inactive (N-Fold <2))
ThT Cat. ([2]; ThT category, 1 if Rel. ThT >2): 0 (ThT-inactive (N-Fold <2))
ThT Cat. / ThT-Fluorescence (categorical) [2]: 0 (ThT-inactive (N-Fold <2))
b -sheet / % [3]: 6.271%
CR / % [4]: 42.9%
CR [4]: 42.88

HIHIQIC
TEM 2cat ([1]; Fig S10 panel D): 1
Fibril ([1]; Fig S10 panel E): 1
Fibril / Fibril Formation ([1]; TEM): 1
Fibril [1, 5]: 1
Fibril [1, 6]: 1
TEM 2cat [1, 7]: 1
Tht category (> 2 to blank = +) ([2]; Fig S10 panel D): 1 (ThT. Cat is 1, if Rel. ThT >2)
ThT Cat. ([2]; Fig S10 panel E): 1 (ThT. Cat is 1, if Rel. ThT >2)
ThT Cat, ([2]; ThT category, 1 if Rel. ThT >2): 1 (ThT. Cat is 1, if Rel. ThT >2)
ThT Cat. ([2]; ThT category, 1 if Rel. ThT >2): 1 (ThT. Cat is 1, if Rel. ThT >2)
ThT Cat. / ThT-Fluorescence (categorical) [2]: 1 (ThT. Cat is 1, if Rel. ThT >2)
b -sheet / % [3]: 48.25%
CR / % [4]: 82.7%
CR [4]: 82.72

HLHLPLL
TEM 2cat ([1]; Fig S10 panel D): 0
Fibril ([1]; Fig S10 panel E): 0
TEM 2cat [1, 8]: 0
Fibril ([1]; FigS12 panel B, TEM): 0
Fibril / Fibril Formation ([1]; TEM): 0
Fibril [1, 5]: 0
Fibril [1, 6]: 0
Tht category (> 2 to blank = +) ([2]; Fig S10 panel D): 0 (ThT-inactive (N-Fold <2))
ThT Cat. ([2]; Fig S10 panel E): 0 (ThT-inactive (N-Fold <2))
Tht category (> 2 to blank = +) ([2]; FigS12 panel A): 0 (ThT-inactive (N-Fold <2))
ThT Cat, ([2]; FigS12 panel B): 0 (ThT-inactive (N-Fold <2))
ThT Cat, ([2]; ThT category, 1 if Rel. ThT >2): 0 (ThT-inactive (N-Fold <2))
ThT Cat. ([2]; ThT category, 1 if Rel. ThT >2): 0 (ThT-inactive (N-Fold <2))
ThT Cat. / ThT-Fluorescence (categorical) [2]: 0 (ThT-inactive (N-Fold <2))
b -sheet / % [3]: 49.19%
CR / % [4]: 37.5%
CR [4]: 37.51

HRRHFRHKITKKK
TEM 2cat ([1]; Fig S10 panel D): 0
Fibril ([1]; Fig S10 panel E): 0
TEM 2cat [1, 8]: 0
Fibril ([1]; FigS12 panel B, TEM): 0
Fibril / Fibril Formation ([1]; TEM): 0
Fibril [1, 5]: 0
Fibril [1, 6]: 0
Tht category (> 2 to blank = +) ([2]; Fig S10 panel D): 0 (ThT-inactive (N-Fold <2))
ThT Cat. ([2]; Fig S10 panel E): 0 (ThT-inactive (N-Fold <2))
Tht category (> 2 to blank = +) ([2]; FigS12 panel A): 0 (ThT-inactive (N-Fold <2))
ThT Cat, ([2]; FigS12 panel B): 0 (ThT-inactive (N-Fold <2))
ThT Cat, ([2]; ThT category, 1 if Rel. ThT >2): 0 (ThT-inactive (N-Fold <2))
ThT Cat. ([2]; ThT category, 1 if Rel. ThT >2): 0 (ThT-inactive (N-Fold <2))
ThT Cat. / ThT-Fluorescence (categorical) [2]: 0 (ThT-inactive (N-Fold <2))
b -sheet / % [3]: 45.34%
CR / % [4]: 44.9%
CR [4]: 44.91
